Assay results from ChEMBL document CHEMBL1201862, “PubChem BioAssay data set” (2004).
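Following 48 hours of exposure in 96-well plates, responses at five concentrations were used to interpolate endpoints linearly. The concentration for 50% growth inhibition is given as GI50.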 Active and inactive are the calls of the source. No stated cut-off is given here; in the data, active = GI50 up to about 1.1 µM and inactive = higher.

Legend:
Test in all cases: NCI-60 cell line screen, 48 h
SN12C = test system: SN12C
BT-549 = test system: BT-549
SR = test system: SR
HL-60 = test system: HL-60
OVCAR-8 = test system: OVCAR-8
A498 = test system: A498
NCI-H23 = test system: NCI-H23
HCT-15 = test system: HCT-15
U-251 = test system: U-251
COLO 205 = test system: COLO 205
KM12 = test system: KM12
SW-620 = test system: SW-620
K562 = test system: K562
UACC-257 = test system: UACC-257
A549 = test system: A549
T47D = test system: T47D
SK-MEL-2 = test system: SK-MEL-2
MDA-N = test system: MDA-N
OVCAR-5 = test system: OVCAR-5
NCI/ADR-RES = test system: NCI/ADR-RES
UO-31 = test system: UO-31
OVCAR-4 = test system: OVCAR-4
DU-145 = test system: DU-145
IGROV-1 = test system: IGROV-1
LOX IMVI = test system: LOX IMVI
PC-3 = test system: PC-3
Malme-3M = test system: Malme-3M
MCF7 = test system: MCF7
ACHN = test system: ACHN
TK-10 = test system: TK-10
NCI-H226 = test system: NCI-H226
Hs-578T = test system: Hs-578T
SF-295 = test system: SF-295
HT-29 = test system: HT-29
MOLT-4 = test system: MOLT-4
MDA-MB-231 = test system: MDA-MB-231
HOP-62 = test system: HOP-62
HCC 2998 = test system: HCC 2998
CCRF-CEM = test system: CCRF-CEM
UACC-62 = test system: UACC-62
SK-MEL-5 = test system: SK-MEL-5
NCI-H460 = test system: NCI-H460
RXF 393 = test system: RXF 393
EKVX = test system: EKVX
SF-539 = test system: SF-539
SNB-75 = test system: SNB-75
HOP-92 = test system: HOP-92
NCI-H522 = test system: NCI-H522
MDA-MB-435 = test system: MDA-MB-435
HCT-116 = test system: HCT-116
CAKI-1 = test system: CAKI-1
SF-268 = test system: SF-268
RPMI-8226 = test system: RPMI-8226
786-0 = test system: 786-0
SK-MEL-28 = test system: SK-MEL-28
OVCAR-3 = test system: OVCAR-3
SK-OV-3 = test system: SK-OV-3
M14 = test system: M14
SNB-19 = test system: SNB-19

CN(/N=C(\C(=O)O)c1ccccc1)C1=NCCCN1
GI50 (SN12C): > 100 µM (inactive)
GI50 (BT-549): > 100 µM (inactive)
GI50 (SR): > 100000 nM (inactive)
GI50 (HL-60): > 100 µM (inactive)
GI50 (OVCAR-8): > 100 µM (inactive)
GI50 (A498): > 100 µM (inactive)
GI50 (NCI-H23): > 100 µM (inactive)
GI50 (HCT-15): > 100 µM
GI50 (U-251): > 100 µM (inactive)
GI50 (COLO 205): > 100 µM (inactive)
GI50 (KM12): > 100 µM (inactive)
GI50 (SW-620): > 100 µM (inactive)
GI50 (K562): > 100 µM (inactive)
GI50 (UACC-257): > 100 µM (inactive)
GI50 (A549): > 100 µM (inactive)
GI50 (T47D): > 100 µM (inactive)
GI50 (SK-MEL-2): > 100 µM (inactive)
GI50 (MDA-N): > 100 µM (inactive)
GI50 (OVCAR-5): > 100 µM (inactive)
GI50 (NCI/ADR-RES): > 100 µM (inactive)
GI50 (UO-31): > 100 µM (inactive)
GI50 (OVCAR-4): > 100 µM (inactive)
GI50 (DU-145): > 100 µM (inactive)
GI50 (IGROV-1): > 100 µM (inactive)
GI50 (LOX IMVI): > 100 µM (inactive)
GI50 (PC-3): > 100 µM (inactive)
GI50 (Malme-3M): > 100 µM (inactive)
GI50 (MCF7): > 100 µM (inactive)
GI50 (ACHN): > 100 µM (inactive)
GI50 (TK-10): > 100 µM (inactive)
GI50 (NCI-H226): > 100 µM (inactive)
GI50 (Hs-578T): > 100 µM (inactive)
GI50 (SF-295): > 100 µM (inactive)
GI50 (HT-29): > 100 µM (inactive)
GI50 (MOLT-4): > 100 µM (inactive)
GI50 (MDA-MB-231): > 100 µM (inactive)
GI50 (HOP-62): > 100 µM (inactive)
GI50 (HCC 2998): > 100 µM (inactive)
GI50 (CCRF-CEM): > 100 µM (inactive)
GI50 (UACC-62): > 100 µM (inactive)
GI50 (SK-MEL-5): > 100 µM (inactive)
GI50 (NCI-H460): > 100 µM (inactive)
GI50 (RXF 393): > 100 µM (inactive)
GI50 (EKVX): 73.3 µM (inactive)
GI50 (SF-539): > 100 µM (inactive)
GI50 (SNB-75): > 100 µM (inactive)
GI50 (HOP-92): 80.9 µM (inactive)
GI50 (NCI-H522): > 100 µM (inactive)
GI50 (MDA-MB-435): > 100 µM (inactive)
GI50 (HCT-116): > 100 µM (inactive)
GI50 (CAKI-1): > 100 µM (inactive)
GI50 (SF-268): > 100 µM (inactive)
GI50 (RPMI-8226): > 100 µM (inactive)
GI50 (786-0): > 100 µM (inactive)
GI50 (SK-MEL-28): > 100 µM (inactive)
GI50 (OVCAR-3): > 100 µM (inactive)
GI50 (SK-OV-3): > 100 µM (inactive)

COc1c(OC)c(OC)c2c(=O)cc(-c3ccc(OC(C)C)cc3)oc2c1OC
GI50 (SN12C): > 38.9 µM (inactive)
GI50 (BT-549): 16.7 µM (inactive)
GI50 (SR): 369 nM (active)
GI50 (HL-60): 2.07 µM (inactive)
GI50 (OVCAR-8): 14.7 µM (inactive)
GI50 (A498): 8.3 µM (inactive)
GI50 (NCI-H23): 27.6 µM (inactive)
GI50 (HCT-15): 19.4 µM
GI50 (U-251): > 37.2 µM (inactive)
GI50 (M14): 19.1 µM (inactive)
GI50 (COLO 205): 21.4 µM (inactive)
GI50 (KM12): 30.9 µM (inactive)
GI50 (SW-620): > 44 µM (inactive)
GI50 (K562): 5.25 µM (inactive)
GI50 (UACC-257): 25.6 µM (inactive)
GI50 (A549): 24.2 µM (inactive)
GI50 (T47D): 7.03 µM (inactive)
GI50 (SK-MEL-2): 20.8 µM (inactive)
GI50 (MDA-N): 31.8 µM (inactive)
GI50 (OVCAR-5): 18.8 µM (inactive)
GI50 (NCI/ADR-RES): 17.5 µM (inactive)
GI50 (UO-31): 18.2 µM (inactive)
GI50 (OVCAR-4): 16.5 µM (inactive)
GI50 (DU-145): 26.1 µM (inactive)
GI50 (IGROV-1): > 42.6 µM (inactive)
GI50 (LOX IMVI): 27.5 µM (inactive)
GI50 (PC-3): 18.8 µM (inactive)
GI50 (Malme-3M): 29.4 µM (inactive)
GI50 (MCF7): 18.3 µM (inactive)
GI50 (ACHN): 34.2 µM (inactive)
GI50 (TK-10): > 38.6 µM (inactive)
GI50 (NCI-H226): 15.1 µM (inactive)
GI50 (Hs-578T): 23.1 µM (inactive)
GI50 (SF-295): 29.4 µM (inactive)
GI50 (HT-29): 8.32 µM (inactive)
GI50 (MOLT-4): 3.87 µM (inactive)
GI50 (MDA-MB-231): 29.3 µM (inactive)
GI50 (HOP-62): 18.5 µM (inactive)
GI50 (HCC 2998): 28.4 µM (inactive)
GI50 (CCRF-CEM): 6.37 µM (inactive)
GI50 (UACC-62): 15.8 µM (inactive)
GI50 (SK-MEL-5): 8.97 µM (inactive)
GI50 (NCI-H460): 27.4 µM (inactive)
GI50 (RXF 393): > 33.5 µM (inactive)
GI50 (EKVX): 26.4 µM (inactive)
GI50 (SF-539): 19.7 µM (inactive)
GI50 (SNB-75): > 35.2 µM (inactive)
GI50 (HOP-92): 8.17 µM (inactive)
GI50 (NCI-H522): 20.9 µM (inactive)
GI50 (MDA-MB-435): 26 µM (inactive)
GI50 (SNB-19): > 38.9 µM (inactive)
GI50 (HCT-116): 10.8 µM (inactive)
GI50 (CAKI-1): 20.5 µM (inactive)
GI50 (SF-268): > 35.9 µM (inactive)
GI50 (RPMI-8226): 3.75 µM (inactive)
GI50 (786-0): > 34.1 µM (inactive)
GI50 (SK-MEL-28): 38.4 µM (inactive)
GI50 (OVCAR-3): 17.9 µM (inactive)
GI50 (SK-OV-3): > 35.7 µM (inactive)

C/C(=N\NC(=S)N(C)C)c1nc2cccnc2[nH]1
GI50 (SN12C): 1.16 µM (inactive)
GI50 (BT-549): 0.0398 µM (active)
GI50 (SR): 679 nM (active)
GI50 (HL-60): 0.323 µM (active)
GI50 (OVCAR-8): 0.982 µM (active)
GI50 (A498): 8.28 µM (inactive)
GI50 (HCT-15): 0.443 µM
GI50 (U-251): 0.494 µM (active)
GI50 (M14): 0.547 µM (active)
GI50 (COLO 205): 0.325 µM (active)
GI50 (SW-620): 0.883 µM (active)
GI50 (K562): 2.16 µM (inactive)
GI50 (UACC-257): 2.01 µM (inactive)
GI50 (A549): 0.792 µM (active)
GI50 (T47D): 0.475 µM (active)
GI50 (SK-MEL-2): 0.583 µM (active)
GI50 (MDA-N): 1.27 µM (inactive)
GI50 (OVCAR-5): 0.504 µM (active)
GI50 (NCI/ADR-RES): 0.449 µM (active)
GI50 (UO-31): 0.348 µM (active)
GI50 (OVCAR-4): 0.499 µM (active)
GI50 (DU-145): 0.504 µM (active)
GI50 (IGROV-1): 0.804 µM (active)
GI50 (LOX IMVI): 0.673 µM (active)
GI50 (PC-3): 0.698 µM (active)
GI50 (Malme-3M): 1.38 µM (inactive)
GI50 (MCF7): 1.05 µM (active)
GI50 (ACHN): 0.618 µM (active)
GI50 (TK-10): 2.1 µM (inactive)
GI50 (NCI-H226): 0.399 µM (active)
GI50 (Hs-578T): 1.22 µM (inactive)
GI50 (HT-29): 0.548 µM (active)
GI50 (MOLT-4): 0.406 µM (active)
GI50 (MDA-MB-231): 0.875 µM (active)
GI50 (HOP-62): 0.54 µM (active)
GI50 (HCC 2998): 0.71 µM (active)
GI50 (CCRF-CEM): 0.379 µM (active)
GI50 (UACC-62): 0.396 µM (active)
GI50 (SK-MEL-5): 0.387 µM (active)
GI50 (NCI-H460): 0.478 µM (active)
GI50 (RXF 393): 0.596 µM (active)
GI50 (EKVX): 0.475 µM (active)
GI50 (SF-539): 0.536 µM (active)
GI50 (SNB-75): 3.18 µM (inactive)
GI50 (HOP-92): 0.275 µM (active)
GI50 (NCI-H522): 1.53 µM (inactive)
GI50 (MDA-MB-435): 0.762 µM (active)
GI50 (SNB-19): 1.02 µM (active)
GI50 (HCT-116): 0.893 µM (active)
GI50 (CAKI-1): 0.501 µM (active)
GI50 (SF-268): 0.59 µM (active)
GI50 (RPMI-8226): 2.07 µM (inactive)
GI50 (786-0): 0.597 µM (active)
GI50 (SK-MEL-28): 1.03 µM (active)
GI50 (SK-OV-3): 0.413 µM (active)
